Measurements published in patent US8691864B2, “Agents useful for reducing amyloid precursor protein and treating dementia and methods of use thereof” (priority 2000, dated 2014).

System: secreted APP
Assay: ELISA for secreted APP in SHSY5Y cells
Format: cell-based, human
Details: Dose 0.08 uM, 16 hours
Protocol: (§1) An enzyme-linked immunosorbent assay was developed to detect secreted APP in SHSY5Y cells, a human neuroblastoma cell line. The purpose of the screen was to discover small molecules that inhibit APP protein synthesis in SHSY5Y cells. SHSY5Y cells were plated at 1×10^5 cells/well in […] of DMEM containing 0.5% heat inactivated FBS in 96 well tissue culture treated plates (Falcon no. 35 3072). 144 MES compounds were tested at final concentrations of […] in 0.1% DMSO. Compounds were added and the plates incubated for 16 hours at 37° C./5% CO2. Maxisorp plates (Nunc no. 437958) were coated overnight with […] capture antibody (Biosource 44-100) diluted in Ca^++ and Mg^++ free PBS. Biosource 44-100 is a mouse mAb that recognizes aa 1-100 of human APP. Plates were blocked for 30 minutes with 1 mg/mL BSA in Ca^++ and Mg^++ free PBS. Plates were washed 3× with wash buffer (Ca^++ and Mg^++ free PBS+0.01% Tween20). […] of supernatants and non-cultured medium controls were transferred from culture plates to ELISA plates. Culture plates were reserved for toxicity analysis. Supernatants were incubated for 4 hours at RT on a plate shaker. After supernatant incubation, plates were washed 3×. Primary antibody (Signet Clone 6E-10 biotin) was added at 0.3125 mg/mL and incubated overnight at 4° C. The recognition site of 6E-10 is aa 1-17 of Ab. For detection, a 1:3000 dilution of horseradish peroxidase conjugated streptavidin (Endogen no. N-100) was incubated for 30 minutes. Plates were washed 3×. Enzyme activity was assessed by incubation with […] TMB substrate solution (Moss no. TMB-US) for 20 minutes. The reaction was stopped by the addition of […] 0.18M sulfuric acid. Optical density was read at 450 nm on Wallac Victor2 plate reader. During the first incubation, toxicity was determined using MTS assay, Cell Titer96 AQ reagent (Promega no. G5430). The background values from the non-cultured medium control were subtracted from the sample values and secreted APP levels and toxicity were expressed as % vehicle control. Of the 144 MES compounds screened, 12 inhibited secreted APP as determined by ELISA. The results are depicted in FIGS. 13A-M.
(§2) Using the experimental procedure outlined above, APP secretion and toxicity studies were performed on several other non-carbamate compounds, and the results are shown in Tables 3 and 4. The compound structures are provided in Table 2 in the application, which are identified by their MES number.

In the case of CC(Br)C(=O)N(C)c1ccc(O)cc1 (stereo not drawn) [MES 9291, Propionanilde], the “APP Secretion by SH-SY-5Y Cells” value was 98.2 % vehicle control.

Same assay, conditions: Dose 0.25 uM, 16 hours

In the case of CC(Br)C(=O)N(C)c1ccc(O)cc1 (stereo not drawn) [MES 9291, Propionanilde], the “APP Secretion by SH-SY-5Y Cells” value was 99.5 % vehicle control.

Same assay, conditions: Dose 0.74 uM, 16 hours

In the case of CC(Br)C(=O)N(C)c1ccc(O)cc1 (stereo not drawn) [MES 9291, Propionanilde], the “APP Secretion by SH-SY-5Y Cells” value was 99.7 % vehicle control.

Same assay, conditions: Dose 2 uM, 16 hours

In order of rising “APP Secretion by SH-SY-5Y Cells” value:
1. COc1ccc2c(c1)[C@]1(C)CCN(C)C1N2Cc1ccccc1 (single isomer, unassigned) [MES 9202]  94.4 % vehicle control
2. COc1ccc2c(c1)[C@]1(C)CCN(Cc3ccccc3)C1N2C (stereo partly drawn) [MES 9276]  96.15 % vehicle control
3. CC(Br)C(=O)N(C)c1ccc(O)cc1 (stereo not drawn) [MES 9291, Propionanilde]  100.1 % vehicle control
4. CN1C(=O)C(=O)c2ccccc21 [MES 9312]  105.4 % vehicle control
5. COc1ccc2c(c1)[C@@](C)(CC[N+](C)(C)C)C(O)N2Cc1ccccc1.[I-] (stereo partly drawn) [MES 9236]  105.8 % vehicle control
6. CC1C(=O)N(C)c2ccc(O)cc21 (stereo not drawn) [MES 9292, 1,3-Dimethyl-5-hydroxyoxindole]  106.15 % vehicle control
7. COc1ccc2c(c1)C1(c3ccccc3)CCNC1N2C (stereo not drawn) [MES 9305]  106.2 % vehicle control
8. COc1ccc2c(c1)[C@](C)(CCN)C(=O)N2C.Cl [MES 9314]  111.25 % vehicle control

Same assay, conditions: Dose 6 uM, 16 hours

In order of rising “APP Secretion by SH-SY-5Y Cells” value:
1. CC(Br)C(=O)N(C)c1ccc(O)cc1 (stereo not drawn) [MES 9291, Propionanilde]  96.9 % vehicle control
2. COc1ccc2c(c1)[C@](C)(CCN)C(=O)N2C.Cl [MES 9314]  99.15 % vehicle control
3. CC1C(=O)N(C)c2ccc(O)cc21 (stereo not drawn) [MES 9292, 1,3-Dimethyl-5-hydroxyoxindole]  99.55 % vehicle control
4. CN1C(=O)C(=O)c2ccccc21 [MES 9312]  101.7 % vehicle control
5. COc1ccc2c(c1)C1(c3ccccc3)CCNC1N2C (stereo not drawn) [MES 9305]  102.4 % vehicle control
6. COc1ccc2c(c1)[C@@](C)(CC[N+](C)(C)C)C(O)N2Cc1ccccc1.[I-] (stereo partly drawn) [MES 9236]  103.2 % vehicle control
7. COc1ccc2c(c1)[C@]1(C)CCN(C)C1N2Cc1ccccc1 (single isomer, unassigned) [MES 9202]  107.55 % vehicle control
8. COc1ccc2c(c1)[C@]1(C)CCN(Cc3ccccc3)C1N2C (stereo partly drawn) [MES 9276]  116.95 % vehicle control

Same assay, conditions: Dose 20 uM, 16 hours

In order of falling “APP Secretion by SH-SY-5Y Cells” value:
1. COc1ccc2c(c1)[C@]1(C)CCN(Cc3ccccc3)C1N2C (stereo partly drawn) [MES 9276]  133.4 % vehicle control
2. COc1ccc2c(c1)[C@]1(C)CCN(C)C1N2Cc1ccccc1 (single isomer, unassigned) [MES 9202]  110.05 % vehicle control
3. COc1ccc2c(c1)[C@](C)(CCN)C(=O)N2C.Cl [MES 9314]  109.4 % vehicle control
4. COc1ccc2c(c1)C1(c3ccccc3)CCNC1N2C (stereo not drawn) [MES 9305]  102.2 % vehicle control
5. COc1ccc2c(c1)[C@@](C)(CC[N+](C)(C)C)C(O)N2Cc1ccccc1.[I-] (stereo partly drawn) [MES 9236]  101.65 % vehicle control
6. CC1C(=O)N(C)c2ccc(O)cc21 (stereo not drawn) [MES 9292, 1,3-Dimethyl-5-hydroxyoxindole]  100.15 % vehicle control
7. CN1C(=O)C(=O)c2ccccc21 [MES 9312]  96.65 % vehicle control
8. CC(Br)C(=O)N(C)c1ccc(O)cc1 (stereo not drawn) [MES 9291, Propionanilde]  67.8 % vehicle control

System: SH-SY-5Y Cells
Assay: MTS toxicity assay in SHSY5Y cells
Format: cell-based, human
Details: Dose 0.08 uM
Protocol: as §1, §2

For CC(Br)C(=O)N(C)c1ccc(O)cc1 (stereo not drawn) [MES 9291, Propionanilde], the “APP Toxicity SH-SY-5Y Cells (MTS assay)” value was 99.1 % vehicle control.

Same assay, conditions: Dose 0.25 uM

In the case of CC(Br)C(=O)N(C)c1ccc(O)cc1 (stereo not drawn) [MES 9291, Propionanilde], the “APP Toxicity SH-SY-5Y Cells (MTS assay)” value was 100.5 % vehicle control.

Same assay, conditions: Dose 0.74 uM

With CC(Br)C(=O)N(C)c1ccc(O)cc1 (stereo not drawn) [MES 9291, Propionanilde] the “APP Toxicity SH-SY-5Y Cells (MTS assay)” value was 97.1 % vehicle control.

Same assay, conditions: Dose 2 uM

In order of rising “APP Toxicity SH-SY-5Y Cells (MTS assay)” value:
1. COc1ccc2c(c1)C1(c3ccccc3)CCNC1N2C (stereo not drawn) [MES 9305]  95.8 % vehicle control
2. COc1ccc2c(c1)[C@@](C)(CC[N+](C)(C)C)C(O)N2Cc1ccccc1.[I-] (stereo partly drawn) [MES 9236]  97.6 % vehicle control
3. COc1ccc2c(c1)[C@]1(C)CCN(C)C1N2Cc1ccccc1 (single isomer, unassigned) [MES 9202]  99.15 % vehicle control
4. CN1C(=O)C(=O)c2ccccc21 [MES 9312]  99.95 % vehicle control
5. COc1ccc2c(c1)[C@](C)(CCN)C(=O)N2C.Cl [MES 9314]  100.15 % vehicle control
6. CC(Br)C(=O)N(C)c1ccc(O)cc1 (stereo not drawn) [MES 9291, Propionanilde]  102.4 % vehicle control
7. CC1C(=O)N(C)c2ccc(O)cc21 (stereo not drawn) [MES 9292, 1,3-Dimethyl-5-hydroxyoxindole]  102.85 % vehicle control

Same assay, conditions: Dose 2 uM; listed as 9276

With COc1ccc2c(c1)[C@]1(C)CCN(Cc3ccccc3)C1N2C (stereo partly drawn) [MES 9276] the “APP Toxicity SH-SY-5Y Cells (MTS assay)” value was 92.85 % vehicle control.

Same assay, conditions: Dose 6 uM

In order of falling “APP Toxicity SH-SY-5Y Cells (MTS assay)” value:
1. CN1C(=O)C(=O)c2ccccc21 [MES 9312]  103.85 % vehicle control
2. CC1C(=O)N(C)c2ccc(O)cc21 (stereo not drawn) [MES 9292, 1,3-Dimethyl-5-hydroxyoxindole]  103.75 % vehicle control
3. COc1ccc2c(c1)[C@@](C)(CC[N+](C)(C)C)C(O)N2Cc1ccccc1.[I-] (stereo partly drawn) [MES 9236]  101 % vehicle control
4. COc1ccc2c(c1)[C@](C)(CCN)C(=O)N2C.Cl [MES 9314]  100.85 % vehicle control
5. CC(Br)C(=O)N(C)c1ccc(O)cc1 (stereo not drawn) [MES 9291, Propionanilde]  99.87 % vehicle control
6. COc1ccc2c(c1)[C@]1(C)CCN(C)C1N2Cc1ccccc1 (single isomer, unassigned) [MES 9202]  97.85 % vehicle control
7. COc1ccc2c(c1)C1(c3ccccc3)CCNC1N2C (stereo not drawn) [MES 9305]  96.73 % vehicle control

Same assay, conditions: Dose 6 uM; listed as 9276

For COc1ccc2c(c1)[C@]1(C)CCN(Cc3ccccc3)C1N2C (stereo partly drawn) [MES 9276], the “APP Toxicity SH-SY-5Y Cells (MTS assay)” value was 93.5 % vehicle control.

Same assay, conditions: Dose 20 uM

In order of falling “APP Toxicity SH-SY-5Y Cells (MTS assay)” value:
1. CN1C(=O)C(=O)c2ccccc21 [MES 9312]  106.95 % vehicle control
2. CC1C(=O)N(C)c2ccc(O)cc21 (stereo not drawn) [MES 9292, 1,3-Dimethyl-5-hydroxyoxindole]  104.9 % vehicle control
3. COc1ccc2c(c1)[C@](C)(CCN)C(=O)N2C.Cl [MES 9314]  100.6 % vehicle control
4. COc1ccc2c(c1)[C@@](C)(CC[N+](C)(C)C)C(O)N2Cc1ccccc1.[I-] (stereo partly drawn) [MES 9236]  100.05 % vehicle control
5. CC(Br)C(=O)N(C)c1ccc(O)cc1 (stereo not drawn) [MES 9291, Propionanilde]  99 % vehicle control
6. COc1ccc2c(c1)C1(c3ccccc3)CCNC1N2C (stereo not drawn) [MES 9305]  94.83 % vehicle control
7. COc1ccc2c(c1)[C@]1(C)CCN(C)C1N2Cc1ccccc1 (single isomer, unassigned) [MES 9202]  90.25 % vehicle control

Same assay, conditions: Dose 20 uM; listed as 9276

For COc1ccc2c(c1)[C@]1(C)CCN(Cc3ccccc3)C1N2C (stereo partly drawn) [MES 9276], the “APP Toxicity SH-SY-5Y Cells (MTS assay)” value was 90.65 % vehicle control.
